# Values of other authors as cited in patent US10450317B2, “Notch pathway signaling inhibitor compounds” (Eli Lilly and Company, priority 2015, dated 2019).
# Experiments:
# [1] = systemic administration; cited from earlier work
# [2] = test system: auditory hair cells; details: middle ear delivery, mice with acoustic trauma; cited from earlier work
smiles,measurement,setting,value
C[C@H](NC(=O)[C@@H](O)c1cc(F)cc(F)c1)C(=O)N[C@@H]1C(=O)N(C)c2ccccc2-c2ccccc21 [LY411575],toxicity,[1],Dose limiting toxicity was shown
same,hearing recovery by regeneration of auditory hair cells,[2],"significant, measurable, hearing recovery"
